Data on four molecules can be found in PMC6926482, “LCO Receptors Involved in Arbuscular Mycorrhiza Are Functional for Rhizobia Perception in Legumes” (Current Biology, 2019).

In one test the target is T1, SlLYK10c-YFP.
T1 construct: gene LYK10; SlLYK10 extracellular region fused to TM/ICR of Medicago truncatula NFP, YFP kept (about 102 kDa with 6 predicted N-glycans); expressed in Nicotiana benthamiana leaves, membrane fraction; with Serine/threonine receptor-like kinase NFP (Medicago truncatula; transmembrane and intracellular region fused to the SlLYK10 extracellular region)
Nature of the test: radioligand competition on membrane fractions. As to conditions: competition with LCO-V(C18:1,NMe,35S) 1-2 nM. The format is binding, Solanum lycopersicum. In general terms: Displacement assays read how much labelled ligand stays bound in the presence of the test substance.

The next test concerns the target T2, PhLYK10-YFP.
T2 construct: gene LYK10; expressed in Nicotiana benthamiana leaves, membrane fraction
Nature of the test: radioligand competition on membrane fractions. The format is binding, Petunia hybrida. Particulars: competition with LCO-V(C18:1,NMe,35S) 1-2 nM; competitor tested at 1 μM only; pH 6.

The mark [1] stands for this setting: competitor tested at 1 μM only, pH 6.
Where [2] appears, read: 25 mM Na-cacodylate pH 6, 1 mM CaCl2, 1 mM MgCl2, n = 3.

By Ki is commonly meant the equilibrium dissociation constant of an inhibitor or competing ligand from its target. A low value points to tighter binding. `CC(=O)N[C@H]1[C@H](O[C@H]2[C@H](O)[C@@H](NC(C)=O)C(O)O[C@@H]2CO)O[C@H](CO)[C@@H](O[C@@H]2O[C@H](CO)[C@@H](O[C@@H]3O[C@H](CO)[C@@H](O)[C@H](O)[C@H]3NC(C)=O)[C@H](O)[C@H]2NC(C)=O)[C@@H]1O` (stereo partly drawn) [CO4]: the inhibition constant Ki on SlLYK10c-YFP (setting [1]) and on PhLYK10-YFP was over 1000 nM throughout.

As to `CC(=O)N[C@H]1[C@H](O[C@H]2[C@H](O)[C@@H](NC(C)=O)[C@H](O[C@H]3[C@H](O)[C@@H](NC(C)=O)[C@H](O[C@H]4[C@H](O)[C@@H](NC(C)=O)C(O)O[C@@H]4CO)O[C@@H]3CO)O[C@@H]2CO)O[C@H](CO)[C@@H](O[C@@H]2O[C@H](CO)[C@@H](O[C@@H]3O[C@H](CO)[C@@H](O[C@@H]4O[C@H](CO)[C@@H](O[C@@H]5O[C@H](CO)[C@@H](O)[C@H](O)[C@H]5NC(C)=O)[C@H](O)[C@H]4NC(C)=O)[C@H](O)[C@H]3NC(C)=O)[C@H](O)[C@H]2NC(C)=O)[C@@H]1O` (stereo partly drawn) [CO8], the inhibition constant Ki on SlLYK10c-YFP (setting [1]) and on PhLYK10-YFP was over 1000 nM throughout. At SlLYK10c-YFP (setting [2]), `CCCCCCCCCCCCCCCC(=O)N[C@H]1[C@H](O[C@H]2[C@H](O)[C@@H](NC(C)=O)[C@H](O[C@H]3[C@H](O)[C@@H](NC(C)=O)[C@H](O[C@H]4[C@H](O)[C@@H](NC(C)=O)C(O)O[C@@H]4CO)O[C@@H]3CO)O[C@@H]2CO)O[C@H](CO)[C@@H](O)[C@@H]1O` (stereo partly drawn) [LCO-IV(C16:0)] returned a Ki of 354 ± 60 nM. Still for that read-out and setting: as for `CCCCCCCCCCCCCCCC(=O)N[C@H]1[C@H](O[C@H]2[C@H](O)[C@@H](NC(C)=O)[C@H](O[C@H]3[C@H](O)[C@@H](NC(C)=O)[C@H](O[C@H]4[C@H](O)[C@@H](NC(C)=O)C(O)O[C@@H]4COS(=O)(=O)O)O[C@@H]3CO)O[C@@H]2CO)O[C@H](CO)[C@@H](O)[C@@H]1O` (stereo partly drawn) [LCO-IV(C16:0,S)], the figure is 192 ± 52 nM.
